Source: patent publication US20080065002A1, “Catheter for Localized Drug Delivery and/or Electrical Stimulation” (NEUROSYSTEC CORPORATION, priority 2006, published 2008)

Experiment: Expected decomposition of gacyclidine in solution
Format: physicochemical
Conditions: 72 hours at 37° C.
Description: The compatibility of gacyclidine in Ringer's Lactate (pH 6.0) in PTFE tubing at room temperature and at 37° C. was evaluated. Three sets of six segments each of PTFE tubing were used. Six samples were collected at each of three time intervals (6 hr, 23 hr and 72 hr). For each set of samples collected, three were incubated at ambient temperature and three were incubated at 37° C. A 16.5 ft. long segment of PTFE tubing (0.010″ ID, 0.018″ OD) was filled with 100 μM gacyclidine in Ringer's Lactate solution (pH 6.0) by use of a glass syringe. The two ends of the tubing were sealed with a paraffin wax vapor barrier. After incubating at room temperature or 37° C. for a specified time, the solution was pumped directly into a glass HPLC autosampler vial insert using an air-filled syringe. The PTFE tubing drug loss in 72 hours at room temperature was 1.3% and at 37° C. was 7.9%. […] The expected amount of decomposition expected in 72 hours at 37° C. is 8.0%.

CC1CCCCC1(c1cccs1)N1CCCCC1 (stereo not shown) [gacyclidine]
expected amount of decomposition: 8.0%
